Experimental findings from patent US5446021A, “Agricultural and horticultural compositions inducing resistance in plants against salt- and water-stress” (Nippon Zoki Pharmaceutical Co., Ltd., priority 1988, dated 1995) are described below.

The test system of test [1] is rice (Oryza sativa L. japonica). The test can be described thus: Effects on rice seedlings under salt-stress caused by sodium chloride (NaCl). The conditions noted are these: 7 days after transplantation, mean ± S.E. In kind it is in vivo. Here is the method: (§1) A filter paper soaked with an aqueous solution of a test agent was laid in a germination dish. Even-sized seeds of rice (Oryza sativa L. japonica) were selected, washed with an aqueous solution containing 0.5% Tween 20 and 1.0% sodium hypochlorite, and then dried. The gemination dishes were sowed with the said rice seeds.
(§2) The seeds were treated with the aqueous solution of the test agent only during the germination period (4 days). The five seeds having equal root lengths were transplanted from germination dishes to water culture vessels with/without NaCl-solution, not containing any test drug. Lengths and weights of both shoots and roots were measured 7 days after transplantation.
(§3) These tests (30° C., 24 h daylight) were repeated 6 times, and the mean value and standard error (S.E.) were obtained.

The subject of a further test is tomato seedlings. The test can be described thus: Effects on tomato seedlings under salt-stress caused by NaCl. The test is classed as in vivo. The conditions noted are these: 0.5% NaCl for 22 days, 25~30° C., 12 h daylight, n = 12~18. Here is the method:
Tomato seeds were treated with the aqueous solution of the test agent during the germination period (4 days). 9 days after transplantation from germination dishes to water culture vessels, 0.5% NaCl-solution was added to the vessels. The tomato seedlings had been cultivated for 22 days in the culture medium containing NaCl.

A further test relates to cucumber seedlings. The experiment in a line: Effects on cucumber seedlings under salt-stress caused by NaCl. In kind it is in vivo. To be noted: 0.5% NaCl for 25 days, 25~32° C., 12 h daylight, n = 5. As for the experimental part:
Cucumber seeds were treated with the aqueous solution of the test agent during the germination period (3 days). 11 days after transplantation from germination dishes to water culture vessels, 0.5% NaCl-solution was added to the vessels. The cucumber seedlings had been for 25 days cultivated in the culture medium containing NaCl.

A further test concerns rice seedlings. The test can be described thus: Effects on rice seedlings under water-stress caused by mannitol. The test is classed as in vivo, Oryza sativa L. japonica. The conditions noted are these: 25° C., 14 h daylight. Here is the method:
as §1
The seeds were treated with the aqueous solution of the test agent only during the germination period (4 days). The five seeds having equal root lengths were transplanted from germination dishes to water culture vessels with/without NaCl-solution, not containing any test drug. Lengths and weights of both shoots and roots were measured 7 days after transplantation. […]
Using mannitol instead of NaCl in the similar manner (I) as mentioned above, the effects of the compounds of the present invention inducing resistance against water-stress were studied.

A further test concerns azalea cuttings. The test can be described thus: Effect on azaleas under salt-stress caused by CaCl2. The test is classed as in vivo. The conditions noted are these: cuttings in 1×10^-6 M test solution; 20% CaCl2 sprayed; 30 days after CaCl2 treatment; result in words. Here is the method: Branches about 20 cm from the top of an azalea bush were cut off. The cuttings were dipped into 50 ml of water of the test solution (compound 9; 1×10^-6 M) in a glass culture tube. The solution was replaced with new solution once a week. Six days after cutting of the branches, a 20% solution of CaCl2, which has been used as an antifreezing agent, was sprayed on the cuttings. Thirty days after the CaCl2 treatment, the rate of azalea budding was measured using the following equation: [formula]

Test [2] relates to rice (Oryza sativa L. japonica). The experiment in a line: Rice growth in water culture with NaCl in the medium (no test agent). The conditions noted are these: for Root length / Shoot length: no test agent, 7 days after transplantation, mean ± S.E. The test is classed as in vivo. As for the experimental part:
as §1, §2, §3

Setting [3] is: 1.5% NaCl, compound 1 × 10^-6 M during germination.
The mark [4] stands for this setting: 1.0% NaCl, compound 5 × 10^-4 M during germination.
Setting [5] is: 1.0% NaCl, compound 5 × 10^-8 M during germination.
The mark [6] stands for this setting: 1.5% NaCl, compound 5 × 10^-4 M during germination.
Setting [7] is: 1.5% NaCl, compound 5 × 10^-8 M during germination.
[8] abbreviates: 1.0% NaCl, compound 5 × 10^-6 M during germination.
Setting [9] is: 1.5% NaCl, compound 5 × 10^-10 M during germination.
Where [10] appears, read: 1.0% NaCl, compound 1 × 10^-4 M during germination (4 days).
Setting [11] is: 1.0% NaCl, compound 1 × 10^-10 M during germination.
Where [12] appears, read: 1.5% NaCl, compound 1 × 10^-4 M during germination.
The mark [13] stands for this setting: 1.5% NaCl, compound 1 × 10^-10 M during germination.
[14] abbreviates: 1.0% NaCl, compound 1 × 10^-6 M during germination.
Where [15] appears, read: 1.5% NaCl, compound 1 × 10^-10-6 M (so in the source) during germination.
Setting [16] is: 1.0% NaCl, compound 1 × 10^-8 M during germination.
Where [17] appears, read: 1.5% NaCl, compound 1 × 10^-8 M during germination.
[18] abbreviates: 2.5% mannitol, compound 1 × 10^-4 M.
Setting [19] is: 2.5% mannitol, compound 1 × 10^-8 M.
The mark [20] stands for this setting: 5.0% mannitol, compound 1 × 10^-4 M.
Where [21] appears, read: 5.0% mannitol, compound 1 × 10^-8 M.
Setting [22] is: 1.5% NaCl, compound 5 × 10^-6 M during germination.

As for `O=C1[C@@H]2CCCN2C(=O)[C@@H]2CCCN12` (racemic) [Compound 15, ±Cyclo(Pro-Pro)], in test [1] (setting [3]), the Root length is 42.7 ± 1.65 mm and the Shoot length came to 24.2 ± 0.50 mm.

Regarding `CC(C)C[C@@H]1NC(=O)[C@@H]2C[C@@H](O)CN2C1=O` [Compound 5, Cyclo (L-Leu-L-Hyp)], the Root length in test [1] (setting [4]) was found to be 19.7 ± 0.69 mm; in test [1] (setting [5]), 20.5 ± 0.87 mm; in test [1] (setting [6]), 13.9 ± 0.61 mm; in test [1] (setting [7]), 15.7 ± 0.58 mm. Besides, the Shoot length in test [1] (setting [4]) is 28.7 ± 0.87 mm; in test [1] (setting [5]), 25.4 ± 0.83 mm; in test [1] (setting [6]) it was 17.1 ± 0.76 mm; in test [1] (setting [7]), 15.6 ± 0.28 mm.

`CC[C@H](C)[C@@H]1NC(=O)[C@@H]2C[C@@H](O)CN2C1=O` [Compound 4, Cyclo(L-Ile-L-Hyp)]: the Root length in test [1] (setting [8]) is 19.9 ± 0.60 mm; in test [1] (setting [5]) it was 21.2 ± 0.68 mm; in test [1] (setting [7]), 14.9 ± 0.52 mm; in test [1] (setting [9]), 14.7 ± 0.52 mm. Moreover, the Shoot length in test [1] (setting [8]) is given as 30.9 ± 1.24 mm; in test [1] (setting [5]) it was 27.1 ± 0.67 mm; in test [1] (setting [7]), 16.0 ± 0.75 mm; in test [1] (setting [9]), 16.3 ± 0.66 mm.

For the compound `CC(C)C[C@@H]1NC(=O)[C@@H]2CCCN2C1=O` [Compound 2, Cyclo (L-Leu-L-Pro)], the Root length in test [1] (setting [10]) is recorded as 38.2 ± 1.60 mm; in test [1] (setting [11]), 37.3 ± 1.69 mm; in test [1] (setting [12]), 38.3 ± 1.89 mm; in test [1] (setting [13]), 39.2 ± 2.11 mm. In addition, the Shoot length amounted to 30.4 ± 0.60 mm in test [1] (setting [10]), 31.1 ± 0.60 mm in test [1] (setting [11]), 22.3 ± 0.53 mm in test [1] (setting [12]) and 21.9 ± 0.53 mm in test [1] (setting [13]).

In the case of `O=C1[C@@H]2C[C@H](O)CN2C(=O)[C@@H]2C[C@H](O)CN12` [Compound 14, Cyclo(L-aHyp-L-aHyp)], the Root length in test [1] (setting [14]) is on record as 43.2 ± 1.69 mm; in test [1] (setting [11]), 38.2 ± 1.57 mm; in test [1] (setting [12]), 35.0 ± 1.77 mm; in test [1] (setting [15]), 35.3 ± 1.93 mm. Moreover, the Shoot length in test [1] (setting [14]) came to 31.8 ± 0.57 mm; in test [1] (setting [11]) it was 30.4 ± 0.60 mm; in test [1] (setting [12]), 21.8 ± 0.58 mm; in test [1] (setting [15]), 22.6 ± 0.83 mm.

As to `O=C1[C@@H]2C[C@@H](O)CN2C(=O)[C@@H]2C[C@@H](O)CN12` [Compound 13, Cyclo(L-Hyp-L-Hyp)], the Root length in test [1] (setting [14]) is recorded as 38.5 ± 1.66 mm; in test [1] (setting [16]) it was 38.1 ± 2.03 mm; in test [1] (setting [12]), 35.6 ± 2.28 mm; in test [1] (setting [17]), 37.9 ± 1.58 mm. The Shoot length in test [1] (setting [14]) turned out to be 29.4 ± 0.61 mm; in test [1] (setting [16]), 30.5 ± 0.59 mm; in test [1] (setting [12]) it was 21.4 ± 0.69 mm; in test [1] (setting [17]), 21.9 ± 0.40 mm.

Regarding `O=C1[C@@H]2C[C@@H](O)CN2C(=O)[C@@H]2CCCN12` [Compound 9, Cyclo(L-Pro-L-Hyp)], the “Dried stem and leaves weight” value is 111.4 ± 8.8 mg in the test on tomato seedlings (compound 1 × 10^-6 M during germination (4 days)) and 141.4 ± 14.4 mg with tomato seedlings (compound 1 × 10^-8 M during germination (4 days)). For the same compound, the Dried stem weight in the test with cucumber seedlings (compound 1 × 10^-6 M during germination (3 days)) is on record as 104.9 ± 7.37 mg; in the test on cucumber seedlings (compound 1 × 10^-8 M during germination (3 days)), 95.5 ± 3.25 mg. Moreover, the Root length stood at 67.7 ± 23.84 mm in the test on rice seedlings (setting [18]); 68.2 ± 10.42 mm in the test with rice seedlings (setting [19]); 39.6 ± 1.80 mm with rice seedlings (setting [20]); 46.7 ± 9.51 mm in the test with rice seedlings (setting [21]); 19.5 ± 0.96 mm in test [1] (setting [4]); 21.8 ± 0.86 mm in test [1] (setting [5]). Also, the Root length in test [1] (setting [22]) worked out at 15.9 ± 0.44 mm; in test [1] (setting [9]), 14.0 ± 0.49 mm. In addition, the Shoot length is recorded as 70.2 ± 3.73 mm in the test with rice seedlings (setting [18]); 63.4 ± 2.18 mm in the test on rice seedlings (setting [19]); 30.0 ± 2.29 mm in the test on rice seedlings (setting [20]); 27.1 ± 1.55 mm in the test with rice seedlings (setting [21]); 28.8 ± 0.99 mm in test [1] (setting [4]); 27.1 ± 0.83 mm in test [1] (setting [5]). The Shoot length in test [1] (setting [22]) was 17.3 ± 0.42 mm; in test [1] (setting [9]), 16.0 ± 0.64 mm. The “Protection of azaleas against salt-stress (rate of azalea budding, FIG. 1)” value with azalea cuttings is given as “protecting azaleas against salt-stress”.

`[Cl-].[Na+]` [NaCl, sodium chloride]: the Root length in test [2] (0.1% NaCl in water culture) is listed as 53.3 ± 2.61 mm; in test [2] (0.2% NaCl in water culture), 39.7 ± 2.02 mm; in test [2] (0.3% NaCl in water culture) it was 37.8 ± 1.48 mm; in test [2] (0.5% NaCl in water culture), 33.8 ± 1.76 mm; in test [2] (0.75% NaCl in water culture), 32.9 ± 1.07 mm; in test [2] (1.0% NaCl in water culture) it was 34.0 ± 1.75 mm. For the same compound, the Shoot length stood at 78.0 ± 1.74 mm in test [2] (0.1% NaCl in water culture); 77.6 ± 1.63 mm in test [2] (0.2% NaCl in water culture); 79.2 ± 1.48 mm in test [2] (0.3% NaCl in water culture); 45.3 ± 1.82 mm in test [2] (0.5% NaCl in water culture); 34.7 ± 0.66 mm in test [2] (0.75% NaCl in water culture); 28.2 ± 0.47 mm in test [2] (1.0% NaCl in water culture). In addition, in test [2] (Table 1, result in words), the “Rice growth with NaCl in the medium” value is recorded as “apparently inhibited”.
